Patent publication US8748456B2, “Pyrazolo piperidine derivatives as NADPH oxidase inhibitors” (Genkyotex SA, priority 2010, dated 2014)

Assays:
Format in all cases: cell-based, human
[1] = tested on: NOX; assay: Chemiluminescence (luminol) measurement of ROS in cells; settings: NOX activity as % of the activity in control cells, 'usually'
Procedure: ROS was measured using the chemiluminescent probe luminol. Cells were cultured and plated as for Amplex Red except that the Amplex Red agent was replaced by 10 μg/mL luminol (Sigma 09235). Light emission was recorded continuously at 37° C. for 60 minutes using the luminescence function of the FluoStar Optima fluorescent plate reader. The mean of the four blank values was subtracted from each corrected value for each time point. NOX activities were expressed as % of the activity in control cells. Residual activity of DPI-treated cells was usually <10%.

[2] = tested on: NOX; assay: Nitroblue tetrazolium (NBT) test of intracellular and extracellular superoxide in cells; settings: DPI 10 μM, NOX activity as % of the activity in control cells, 'usually'
Procedure: Intracellular and extracellular superoxide was measured by a colorimetric technique using a quantitative nitroblue tetrazolium (NBT) test. SOD-inhibitable conversion of NBT to formazan, a fine blue precipitate, in the presence of superoxide anion was measured using Fluostar Optima spectrometer (BMG labtech). Following incubation with appropriate stimuli, cells were trypsinized (1× Trypsin-EDTA), collected by centrifugation, and washed with PBS to remove medium. 5×10^5 cells were plated on 48-well plates and incubated in Hank's balanced salt solution containing 0.5 mg/mL NBT with or without 800 U/mL SOD in the presence or absence of compounds according to the invention. As a control, DPI was included at a final concentration of 10 μM. After 2.5 h, cells were fixed and washed with methanol to remove non reduced NBT. The reduced formazan was then dissolved in 230 μl of 2M potassium hydroxide and in 280 μl of dimethylsulfoxide. The absorption was measured at 630 nm. For calculation, the absorbance at 630 nm was normalized for each individual well. The mean of the four blank values was subtracted from each corrected value for each time point. NOX activities were expressed as % of the activity in control cells. Residual activity of DPI-treated cells was usually <10%.

[3] = tested on: T1, NOX; assay: H2DCF-DA (DCF fluorescence) in HUVEC stimulated with TGF-β; settings: NOX activity as % of the activity in control cells, 'usually'
T1 construct: rows headed: Residual activity of DPI-treated cells; other: H2DCF-DA, HUVEC + TGF-β; NOX activity as % of the activity in control ce
Procedure: HUVEC are cultured in endothelial basal medium supplemented with hydrocortisone (1 μg/mL, CalbioChem), bovine brain extract (12 μg/mL), gentamicin (50 μg/mL, CalbioChem), amphotericin B (50 ng/mL, CalBioChem EGF (10 ng/mL, and 10% FCS until the fourth passage. When the fifth passage was started, cells were cultured with a lower concentration of FCS (2%) in the absence of EGF, if not indicated otherwise. All experiments were done with cells of the fifth passage. The cells were incubated with OxLDL (oxidized low-density lipoprotein) or its buffer as control for 24 h, before detection of O2^− formation.
HUVEC were plated on coverslips and made quiescent overnight in 0.5% BSA before stimulation with TGF-β. Cells were loaded for 10 minutes with 5 μM CM-H2DCFDA in phenol-red-free medium in the dark and then treated with TGF-β (R&D Systems) in the presence or absence of compounds according to the invention. Cells were then visualized by immunofluorescence microscopy after fixation and staining of the nuclei with DAPI or examined live using confocal microscopy. DCF fluorescence was visualized at an excitation wavelength of 488 nm and emission at 515 to 540 nm. […] For calculation, the absorbance at […] was normalized to absorbance at […] for each individual well. […] NOX activities were expressed as % of the activity in control cells. […]

[4] = tested on: T2, NOX; assay: Amplex Red measurement of NOX activity (extracellular hydrogen peroxide) in DMSO-differentiated HL60 cells; settings: DPI 10 μM, NOX activity as % of the activity in control cells, 'usually'
T2 construct: rows headed: Residual activity of DPI-treated cells; other: Amplex Red; DPI 10 μM; NOX activity as % of the activity in control cell
Procedure: Human acute myeloid leukemia cell line HL-60 was cultured in RPMI 1640 (Invitrogen) supplemented with 10% heat-inactivated calf serum, 2 mM glutamine, 100 U/mL penicillin (Sigma), and 100 μg streptomycin (Sigma) at 37° C. under a humidified atmosphere of 5% CO2. HL60 differentiation to the neutrophil phenotype was triggered by adding Me2SO (final concentration 1.25% v/v for 6 days) to the culture medium.
Extracellular hydrogen peroxide was measured using Amplex UltraRed (Molecular Probes). Cells were trypsinized (1× Trypsin-EDTA), collected by centrifugation, and resuspended in HBSS supplemented with 1% glucose. Cells were seeded into black 96-well plates at a density of 50′000 cells in 200 μl testing buffer (HBSS 1% glucose containing 0.005 U/mL horseradish peroxidase (Roche) and 50 μM Amplex Red in the presence or absence of compounds according to the invention. As a control, DPI was included at a final concentration of 10 μM The plates were placed in the fluorescent Optima Fluorescent plate reader and kept at 37° C. during 20 min. Fluorescence was measured for […] with excitation and emission wavelengths of 544 nm and 590 nm respectively. NOX activities were expressed as % of the activity in control cells. […]
The Table 2 below summarizes the percentage of inhibition of NOX activity as measured by Amplex Red using DMSO-differentiated HL60 cells as described above: […]

Measured: Residual activity of DPI-treated cells

c1ccc([I+]c2ccccc2)cc1 [DPI, Diphenyl-iodonium]
< 10%: all assays above
